Data on seven compounds can be found in PubChem BioAssay (NCI).

Common to all, as to assay: growth of human tumour cells (NCI), 48 h
The subject of test [1] is HOP-62 NSCLC.
The subject of test [2] is IGROV1 ovarian.
The subject of test [3] is MDA-MB-231 breast.
Test [4] concerns KM12 colon.
Test [5] deals with NCI-H460 lung.
Test [6] deals with HL-60(TB) leukemia.
Test [7] relates to OVCAR-4 ovarian.
For test [8], the system named is UACC-257 melanoma.
Test [9] deals with SNB-75 CNS.
For test [10], the system named is MCF7 breast.

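Where inhibition never reached the appropriate level, the endpoint shown equals the highest concentration tested. Otherwise, values were interpolated linearly from a five-concentration, 48-hour dose response in 96-well plates. GI50 is the concentration that inhibits growth by half. TGI is the concentration that stops growth completely.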 Some results are limits rather than exact numbers.

With `OCc1ncc(-c2ccccc2)s1`, the GI50 in [1], in [2], in [3], in test [4], in [5] and in test [6] was over 100 µM throughout. Moreover, the GI50 in test [7], in test [8], in [9] and in [10] was over 100 µM throughout. The TGI in test [1], in test [2], in [3], in test [4], in test [5] and in test [6] was over 100 µM each time. Further, the TGI in test [7], in test [8], in test [9] and in [10] was over 100 µM each time.

Regarding `C=C1C(=O)O[C@H]2[C@H]1CC/C(COC(=O)C(=O)c1c[nH]c3ccc(Cl)cc13)=C\CC[C@@]1(C)O[C@@H]21`, the GI50 is 1.63 µM in test [1]; 1.63 µM in [2]; 1.84 µM in test [3]; 3.21 µM in [4]; 2.45 µM in test [5]; 1.91 µM in test [6]. Further, the GI50 in [7] is 2.34 µM; in test [8], 2 µM; in [9] it was 1.48 µM; in test [10], 0.779 µM. Also, the TGI came out at 3.66 µM in test [1]; 3.32 µM in test [2]; 4.03 µM in test [3]; 11.6 µM in [4]; 5.93 µM in [5]; 5.09 µM in test [6]. Further, the TGI stood at 7.03 µM in [7], 4.13 µM in test [8], 3.87 µM in test [9] and 4.27 µM in [10].

As to `CC(=O)OC1CC2(O)C(CCC3(C)C(c4ccc(=O)oc4)CCC32O)C2(C)CCC(OC3OC(CO)C(O)C(O)C3O)C=C12` (stereo not given), the GI50 in test [1] is 0.0201 µM; in test [2] it was 0.0318 µM; in [3], 0.0684 µM; in [4], 0.0416 µM; in [5] it was under 0.01 µM; in [6], 0.0232 µM. For the same compound, the GI50 in test [7] was 0.0273 µM; in test [8] it was 0.0383 µM; in test [9], 0.0333 µM; in test [10], 0.0183 µM. Further, the TGI in test [1] stood at 0.144 µM; in [2] it was 0.272 µM; in test [3], 0.396 µM; in [4] it was 0.2 µM; in test [5] it was 0.0282 µM; in test [6], 0.0579 µM. Besides, the TGI in test [7] was found to be 0.153 µM; in [8], 0.206 µM; in [9] it was 0.192 µM; in [10] it was 0.167 µM.

For the compound `Cc1cccc2c(N=Nc3ccccc3[N+](=O)[O-])c(O)[nH]c12`, the TGI was 21.8 µM in [1]; over 50.5 µM in [2]; 6.58 µM in test [3]; over 58.6 µM in [4]; 30.6 µM in [5]; over 100 µM in test [6]. Moreover, the TGI in test [7] was 16.9 µM; in [8] it was over 53.5 µM; in [9], 31.9 µM; in test [10], 24.3 µM.

In the case of `Cc1ccc(NC(=O)N2CCCCC2)cc1[N+](=O)[O-]`, the GI50 in [1], in [2], in test [3], in [4], in test [5] and in [6] was over 100 µM each time. The GI50 in test [7], in [8], in test [9] and in test [10] was over 100 µM in each case. Besides, the TGI in [1], in test [2], in [3], in test [4], in [5] and in test [6] was over 100 µM in each case. Further, the TGI in test [7], in test [8], in [9] and in test [10] was over 100 µM in each case.

On to `N#CSCC1CC(O)(c2ccccc2)CC(c2ccc(Cl)cc2)O1` (stereo not given), for which the GI50 in test [1] was 4.46 µM; in test [2], 2.75 µM; in [3], 2.8 µM; in test [4], 1.77 µM; in test [5], 2.33 µM; in [6] it was 2.52 µM. In addition, the GI50 in test [7] was 4.44 µM; in test [8], 3.29 µM; in test [9], 3.58 µM; in [10] it was 1.84 µM. For the same compound, the TGI worked out at 14.9 µM in test [1]; 7.72 µM in test [2]; 11.2 µM in test [3]; 3.36 µM in test [4]; 6.38 µM in [5]; 5.3 µM in test [6]. For the same compound, the TGI in test [7] was determined as 15.3 µM; in [8], 9.32 µM; in test [9], 13.3 µM; in [10], 4.92 µM.

Turning to `CC(C)c1ccc(/C=N/N=C(N)N)cc1`, the GI50 is 4.61 µM in test [1]; 11 µM in test [2]; 7.39 µM in test [3]; 3.3 µM in test [4]; 3.89 µM in test [5]; 4.36 µM in [6]. The GI50 in test [7] is 10.3 µM; in test [8] it was 8.74 µM; in test [9], 5.68 µM; in [10], 2.76 µM. Also, the TGI in [1] was 17.9 µM; in test [2], 25.8 µM; in test [3], 21.5 µM; in [4] it was 11.6 µM; in test [5], 14.4 µM; in test [6], 11.3 µM. Moreover, the TGI in test [7] was found to be 23.2 µM; in test [8], 24.1 µM; in test [9] it was 26 µM; in [10], 10.1 µM.
